# Literature values, collected in patent publication US20150111372A1 (priority 2013, published 2015).
# Where two headings read alike, the source gives them in different places.
# Columns and labels:
# [1] = tested on: livers of chickens; conditions: in vivo
Compound,"Solubility, Water (pH 2)","Solubility, Water (pH 5)",levels of arsenic in the livers of chickens [1]
"O=C(O)CNCP(=O)(O)O [N-(phosphonomethyl)glycine), N-(phosphonomethyl)glycine]",pH 2: 10 g/L,pH 5-9: 1 kg/L,
"O=[N+]([O-])c1cc([As](=O)(O)O)ccc1O [Roxarsone, 4-Hydroxy-3-nitrobenzenearsonic acid]",,,elevated (but 'very low') levels
